Patent US5641792A, “Benzoylguanidines substituted by heterocyclic N-oxide, process for their preparation and pharmaceutical compositions containing them” (priority 1994, dated 1997)
Structures can show the parent of a compound that is named as a salt. Each block holds one compound with its values, some of them ahead of it.

Columns and labels:
[1] = target: T1, Na^+ /H^+ exchanger of rabbit erythrocytes (Oryctolagus cuniculus, UniProt P23791); assay: Inhibition of the Na^+ /H^+ Exchanger of Rabbit Erythrocytes (amiloride-sensitive Na^+ influx, flame photometry); format: cell-based, rabbit (White New Zealand); settings: cholesterol-fed rabbits, pH 7.4, 37° C.
T1 construct: determine the Na^+ influx into the erythrocytes via Na^+ /H^+ exchange by flame photometry; endogenous in cells; host or cells: erythrocytes in blood from the ear arteries of cholesterol-fed White New Zealand rabbits (Ivanovas)
Text: Inhibition of the Na^+ /H^+ Exchanger of Rabbit Erythrocytes
White New Zealand rabbits (Ivanovas) were given a standard diet with 2% of cholesterol for six weeks in order to activate the Na^+ /H^+ exchange and in this way to be able to determine the Na^+ influx into the erythrocytes via Na^+ /H^+ exchange by flame photometry. The blood was removed from the ear arteries and rendered noncoagulable by 25 IU of potassium-heparin. A portion of each sample was used for duplicate determination of the hematocrit by centrifugation. Aliquots of in each case 100 μl were used for measurement of the starting Na^+ content of the erythrocytes.
To determine the amiloride-sensitive sodium influx, 100 μl of each blood sample were incubated in 5 ml portions each of a hyperosmolar salt/sucrose medium (mmol/l: 140 NaCl, 3 KCl, 150 sucrose, 0.1 ouabain, 20 tris-hydroxymethylaminomethane) at pH 7.4 and 37° C. The erythrocytes were then washed three times with ice-cold MgCl2 /ouabain solution (mmol/l: 112 MgCl2, 0.1 ouabain) and hemolyzed in 2.0 ml of distilled water. The intracellular sodium content was determined by flame photometry.
The Na^+ net influx was calculated from the difference between the starting sodium values and the sodium content of the erythrocytes after incubation. The sodium influx which can be inhibited by amiloride resulted from the difference between the sodium content of the erythrocytes after incubation with and without 3×10^-4 mol/l of amiloride. This procedure was also followed with compounds according to the invention.

rat hearts = settings: isolated rat hearts, cited from earlier work
[2] = cited from earlier work

T1 sequence (P23791 whole entry): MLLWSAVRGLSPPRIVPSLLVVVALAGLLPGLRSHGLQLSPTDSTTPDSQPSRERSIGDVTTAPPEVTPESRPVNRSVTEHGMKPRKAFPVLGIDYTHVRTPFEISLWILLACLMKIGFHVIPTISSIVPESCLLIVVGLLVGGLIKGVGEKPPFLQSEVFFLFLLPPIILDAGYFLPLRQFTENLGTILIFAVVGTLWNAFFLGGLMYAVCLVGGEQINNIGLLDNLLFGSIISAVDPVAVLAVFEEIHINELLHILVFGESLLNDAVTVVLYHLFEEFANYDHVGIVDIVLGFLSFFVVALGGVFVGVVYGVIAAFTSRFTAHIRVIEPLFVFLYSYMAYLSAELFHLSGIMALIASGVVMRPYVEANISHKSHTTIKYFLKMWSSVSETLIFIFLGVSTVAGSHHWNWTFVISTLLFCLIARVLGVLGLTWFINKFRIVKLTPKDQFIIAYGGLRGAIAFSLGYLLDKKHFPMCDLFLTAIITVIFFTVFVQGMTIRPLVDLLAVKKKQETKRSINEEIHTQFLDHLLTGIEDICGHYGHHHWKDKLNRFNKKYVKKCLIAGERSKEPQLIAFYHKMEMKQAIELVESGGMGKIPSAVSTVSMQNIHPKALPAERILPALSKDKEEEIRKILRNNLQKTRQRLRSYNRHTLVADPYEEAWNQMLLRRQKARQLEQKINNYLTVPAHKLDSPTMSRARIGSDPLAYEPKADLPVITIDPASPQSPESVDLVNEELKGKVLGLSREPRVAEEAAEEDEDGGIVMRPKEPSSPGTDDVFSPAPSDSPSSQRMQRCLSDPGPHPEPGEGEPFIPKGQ

- IC50 [1]: 80 nM
Structure (SMILES): NC(N)=NC(=O)c1ccc(Oc2ccc[n+]([O-])c2)c(C(F)(F)F)c1 [Example 1, 4-(pyridine N-oxide-3-yloxy)-3-trifluoromethyl-benzoylguanidine, hydrochloride]

- IC50 [1]: 300 nM
Structure (SMILES): Cc1ccc2cc(Oc3ccc(C(=O)N=C(N)N)cc3S(C)(=O)=O)ccc2[n+]1[O-] [Example 2, 4-(quinaldine N-oxide-6-yloxy)-3-methylsulfonyl-benzoylguanidine, hydrochloride]

- IC50 [1]: 19 nM
Structure (SMILES): Cc1ccc2cc(Oc3ccc(C(=O)N=C(N)N)cc3C(F)(F)F)ccc2[n+]1[O-] [Example 3, 4-(quinaldine N-oxide-6-yloxy)-3-trifluoromethyl-benzoylguanidine, hydrochloride]

Structure (SMILES): NC(N)=NC(=O)c1nc(Cl)c(N)nc1N [amiloride, Amiloride]
- suppression of artificially induced ventricular fibrillation (rat hearts; Eur. Heart J. 9 (suppl. 1): 167 (1988)): suppressed completely
- antiarrhythmic effect ([2]; Circulation 79, 1257-63 (1989)): only weak
- accompanying action (side-effects) ([2]; accompanies the antiarrhythmic effect): antihypertensive and saluretic action

Structure (SMILES): CCN(c1nc(N)c(C(=O)NC(=N)N)nc1Cl)C(C)C [ethylisopropylamiloride]
- potency relative to amiloride in this model (ventricular fibrillation) (rat hearts; compared with amiloride): even more potent than amiloride
